Assay results published in article PMC10946813, “Lipophilicity Modulations by Fluorination Correlate with Membrane Partitioning” (Angewandte Chemie (International Ed. in English), 2023).
Where “and” joins values, the source holds several entries; their conditions need not be identical. Equal entries are not always repeated. One block for each compound: values may come before it.

Legend:
[1] = Molar membrane partition coefficient (logKp) by 19F MAS solid-state NMR in lipid vesicles; format: physicochemical; conditions: for Molar Partition Coefficient (logKP): POPC; for logKp Measured as single compound (3.30 mol%): Table 1; for logKp Measured as single compound (3.30 mol%) / logKp Measured as equimolar mixture: POPC bilayers hydrated at 20 % w/v; for increase in logKp: equimolar mixture of 9 and 10 at 3.3 mol % versus compound alone
Procedure: The principle of the method is explained in Figure 2 (with a detailed description of the protocol provided in Supporting Information). The method utilizes ^19F MAS NMR to quantitate the partitioning of the fluorinated compounds between the aqueous and membrane phases. […] Experimentally, it was determined that only moderate spinning speeds (10 kHz) and low power decoupling (10 kHz decoupling field) were required to obtain well resolved spectra, even at these high magnetic fields; with motional processes within the liquid crystalline lipid bilayer averaging the potentially large chemical shielding anisotropy and dipolar couplings experienced by the fluorine spins. The application of low spinning speeds and radiofrequency decoupling fields also reduces sample heating, whilst minimising the pelleting of the vesicles against the rotor wall. The absence of any discernable sidebands, resulting from incomplete averaging, simplifies the analysis, as this precludes the need to integrate the entire family of sidebands.
With knowledge of the number of water ( nW ) and lipid ( nM ) molecules, the molar partition coefficient ( KP) is readily determined.
To determine how the concentration of the compound and bilayer hydration influenced the measured logK P, a systematic study of these parameters was undertaken for compound 10 (Figure S2, Table S1). Samples were prepared where the lipids were hydrated at levels between 10 to 30 %(w/v), a range widely used to study the physical properties of lipid bilayers. […] On the basis of the reproducibility of these figures, all subsequent experiments were conducted at 20 % (w/v) hydration with a compound/lipid ratio of 0.033. In addition to providing excellent reproducibility, these concentrations afforded good signal to noise ratios with sensible spectral acquisition times. […]
(§1) to the r.f. field strength then care should be taken to ensure that the two compounds are similarly excitated. Quantitative data also requires the complete relaxation of the nuclei between scans. For the studies reported here, saturation recovery measurements were performed on each system, with spectra then acquired with a recycle delay of five times T1. It […]
(§2) shorter T1 values than that of the substrate in aqueous solution, mirroring the observation […]
(§3) In addition to more general NMR considerations, care must also be exercised to ensure that the signal intensity, particularly that of the membrane bound state, is not influenced by anisotropic interactions that may be present. Due to the molecular dynamics within the lipid bilayer, many of these interactions are already motionally averaged facilitating their removal.
(§4) The application of low-power (10 kHz) SPINAL-64 decoupling[2] is sufficient to remove the weak scalar and dipolar couplings that are present within the fluid lipid bilayer. Care was taken […]
(§5) linebroadening due to temperature dependent changes in chemical shift. Similarly, data was acquired with both 5 and 10 kHz MAS and no change in isotropic chemical shift was observed […]
(§6) However, increasing the spinning speed from 5 to 10 kHz ensured complete averaging the residual chemical shielding anisotropy and other anisotropic contrbutions to the spectra and the presence of a single isotropic resonance for each population. The absence of any discernable sidebands in spectra acquired at 10 kHz allows the accurate integration of the signal intensity without the need to integrate the entire family of sidebands which would be required for a quantitative analysis.
(§7) Care should be taken when extending this to other compounds where the anisotropy may larger, either due to a larger chemical shielding anisotropy at the fluorine site studied or the application of higher magnetic as this would complicate the signal integration.
Prior to Fourier Transform, data was processed with 1Hz exponential line broadening and zero filled with 16384 points. The resulting spectra was phased and base line corrected. All processing was performed in Matlab using matNMR[5]. […]

[2] = Octanol-water partition coefficient (logP OW), 19F NMR method with reference compound
[3] = Molar membrane partition coefficient (logKp) by 19F MAS NMR in POPC/cholesterol bilayers; format: physicochemical; conditions: for Molar Partition Coefficient (logKP): Table S3, POPC, 20% (w/v), substrate 3.3 mol%; for fall in logKP: increasing cholesterol up to 50 mol % versus pure POPC membranes
Description: A major advantage of the method presented here compared to logP determination is that it can be applied to membranes of arbitrary complexity, enabling the analysis of the influence of such properties as headgroup size/charge and chain length/saturation. […] As an example of this kind of investigation, a mixed lipid system was employed. In particular, we investigated how increasing concentrations of cholesterol, a commonly found sterol in eukaryotic cell membranes, influenced the membrane partitioning of 9 and 10 (Figure 5, Table S3). […] The fall in logK P mirrors earlier studies where a reduction in membrane partitioning for small molecules has been observed.[19] This reduction has been attributed to the […] of the acyl chain packing and their favourable interactions with the cholesterol.[20] […]
as §1, §2, §3, §4, §5, §6, §7
Prior to Fourier Transform, data was processed with 1Hz exponential line broadening and zero filled with 16384 points. The resulting spectra was phased and base line corrected. All processing was performed in Matlab using matNMR[5]. The subsequent resonances where fitted to Lorentzian peaks using custom scripts in Matlab which are available from the authors.
1.4 Calculation of the molar membrane partition coefficients
In the slow exchange limit the molar partition coefficient can then be calculated as:
K = n",$/n$ = C",$/’(’)*.n% = I",$ . n%
Where C",+ and C",$ are the concentrations of the substrate in the membrane and aqueous phases respectively and n", n$ and n% are the number of substrate, lipid and water molecules respectively. The ratio C",$/’(’)*/C",%/’(’)* can be determined directly from the ratio of the integrals from the signals arising from the lipidic and aqueous phases (See Figure 2, main paper), whilst the ratio of n%/n$ represents the ratio of water to lipid molecules in the membrane, the degree of hydration.
2 Influence of exchange between the membrane and aqueous phase on 19F MAS-NMR Lineshape (Figure S1)
The influence of chemical exchange is well characterised in the liquid state, however […]

[4] = Table S2, one 19F resonance evaluated
[5] = individual experiment (octanol/water), one of triplicate
[6] = octanol/water, Average logP, triplicate
[7] = octanol/water, Error (mean logP with standard deviation), triplicate, three decimals
[8] = Table S2, glycosides, first listed 19F resonance
[9] = Table S2, glycosides, second listed 19F resonance

- Molar Partition Coefficient (logKP) [1, 4]: 1.82 ± 0.06
Structure (SMILES): OC[C@H](F)C[C@@H](F)CO (single isomer, unassigned) [ent-15]

- Molar Partition Coefficient (logKP) [1, 4]: 2.54 ± 0.08
Structure (SMILES): OCC1CC1(F)F (stereo not drawn) [compound 1]

- Molar Partition Coefficient (logKP) [1, 4]: 2.17 ± 0.05
Structure (SMILES): OC[C@H]1C[C@@H]1F [compound 2]

- Molar Partition Coefficient (logKP) [1, 4]: 2.08 ± 0.01
Structure (SMILES): OCC1(F)CC1 [compound 3]

- Molar Partition Coefficient (logKP) [1, 4]: 2.02 ± 0.04
Structure (SMILES): OC[C@@H]1C[C@@H]1F [compound 4]

- logP [2, 5]: -0.698 and -0.708 and -0.717
- logP [2, 6]: -0.71
- logP [2, 7]: -0.707
- Molar Partition Coefficient (logKP) [1, 8]: 1.98 ± 0.02
- Molar Partition Coefficient (logKP) [1, 9]: 1.98 ± 0.03
Structure (SMILES): CO[C@H]1O[C@H](CF)[C@@H](F)[C@H](O)[C@H]1O [compound 5]

- logP [2, 5]: -1.036 and -1.054 and -1.053
- logP [2, 6]: -1.05
- logP [2, 7]: -1.05
- Molar Partition Coefficient (logKP) [1, 8]: 1.93 ± 0.16
- Molar Partition Coefficient (logKP) [1, 9]: 1.95 ± 0.15
Structure (SMILES): CO[C@@H]1O[C@H](CF)[C@@H](F)[C@H](O)[C@H]1O [compound 6]

- logP [2, 5]: -0.905 and -0.898
- logP [2, 6]: -0.9
- logP [2, 7]: -0.902
- Molar Partition Coefficient (logKP) [1, 8]: 1.80 ± 0.05
- Molar Partition Coefficient (logKP) [1, 9]: 1.87 ± 0.14
Structure (SMILES): CO[C@H]1O[C@H](CF)[C@H](F)[C@H](O)[C@H]1O [compound 7, methyl 4,6-dideoxy-4,6-difluoro-α-D-galactopyranoside]

- logP [2, 5]: -1.257 and -1.242 and -1.253
- logP [2, 6]: -1.25
- logP [2, 7]: -1.25
- Molar Partition Coefficient (logKP) [1, 8]: 1.69 ± 0.00
- Molar Partition Coefficient (logKP) [1, 9]: 1.64 ± 0.06
Structure (SMILES): CO[C@@H]1O[C@H](CF)[C@H](F)[C@H](O)[C@H]1O [compound 8, methyl 4,6-dideoxy-4,6-difluoro-β-D-galactopyranoside]

- Molar Partition Coefficient (logKP) ([3]; membrane cholesterol 25 mol %): 1.87 ± 0.03
- Molar Partition Coefficient (logKP) ([3]; membrane cholesterol 50 mol %): 1.77 ± 0.02
- fall in logKP [3]: 0.24
- logKp Measured as single compound (3.30 mol%) [1]: 2.01±0.02
- Molar Partition Coefficient (logKP) [1, 4]: 2.01 ± 0.02
- Molar Partition Coefficient (logKP) ([1]; Table S3, membrane cholesterol 0 mol %, 20% (w/v), substrate 3.3 mol%): 2.01 ± 0.02
- increase in logKp [1]: 0.2 units
- logKp Measured as equimolar mixture ([1]; mixture 9+10, 1.65 mol% each): 1.99±0.09
- logKp Measured as equimolar mixture ([1]; mixture 9+10, 3.30 mol% each): 2.18±0.07
Structure (SMILES): OCCCC(F)(F)CO [compound 9]

- Molar Partition Coefficient (logKP) ([3]; membrane cholesterol 25 mol %): 1.74 ± 0.02
- Molar Partition Coefficient (logKP) ([3]; membrane cholesterol 50 mol %): 1.68 ± 0.05
- fall in logKP [3]: 0.17
- logKp Measured as single compound (3.30 mol%) [1]: 1.83±0.04 and 1.83±0.11
- logKP ([1]; Table S1, hydration 10 % w/v, substrate/lipid 0.010 mole/mole): 1.73
- logKP ([1]; Table S1, hydration 10 % w/v, substrate/lipid 0.033 mole/mole): 1.91
- logKP ([1]; Table S1, hydration 10 % w/v, substrate/lipid 0.100 mole/mole): 1.81
- logKP ([1]; Table S1, hydration 20 % w/v, substrate/lipid 0.010 mole/mole): 1.97
- logKP ([1]; Table S1, hydration 20 % w/v, substrate/lipid 0.033 mole/mole, mean value (n=3)): 1.83
- logKP ([1]; Table S1, hydration 20 % w/v, substrate/lipid 0.100 mole/mole): 1.95
- logKP ([1]; Table S1, hydration 30 % w/v, substrate/lipid 0.010 mole/mole): 1.81
- logKP ([1]; Table S1, hydration 30 % w/v, substrate/lipid 0.033 mole/mole): 1.69
- logKP ([1]; Table S1, hydration 30 % w/v, substrate/lipid 0.100 mole/mole): 1.85
- logKP, Mean ([1]; Table S1, mean over all hydrations (10-30 % w/v) and substrate/lipid ratios (0.010-0.100)): 1.85
- Molar Partition Coefficient (logKP) [1, 4]: 1.83 ± 0.04
- mean logKP ([1]; compound concentration 1 to 10 mol % (with respect to total lipid), mean across all levels of hydration): 1.85±0.02
- increase in logKp [1]: 0.2 units
- mean logKP ([1]; lipids hydrated at 10 to 30 %(w/v), mean across the range of compound concentrations studied): 1.85±0.06
- logKp Measured as equimolar mixture ([1]; mixture 9+10, 1.65 mol% each): 1.84±0.01
- logKp Measured as equimolar mixture ([1]; mixture 9+10, 3.30 mol% each): 2.01±0.04
- logKp Measured as equimolar mixture ([1]; mixture 10+13, 3.30 mol% each): 1.88±0.11
- Kp at 0.01 mole/mole substrate/lipid ([1]; multilamellar POPC vesicles, Table S1, hydration 10 % w/v, substrate/lipid 0.010 mole/mole): 53.4
- Kp at 0.033 mole/mole substrate/lipid ([1]; multilamellar POPC vesicles, Table S1, hydration 10 % w/v, substrate/lipid 0.033 mole/mole): 81.8
- Kp at 0.1 mole/mole substrate/lipid ([1]; multilamellar POPC vesicles, Table S1, hydration 10 % w/v, substrate/lipid 0.100 mole/mole): 64.5
- Kp at 0.01 mole/mole substrate/lipid ([1]; multilamellar POPC vesicles, Table S1, hydration 20 % w/v, substrate/lipid 0.010 mole/mole): 93.9
- Kp at 0.033 mole/mole substrate/lipid ([1]; multilamellar POPC vesicles, Table S1, hydration 20 % w/v, substrate/lipid 0.033 mole/mole): 67.6
- Kp at 0.1 mole/mole substrate/lipid ([1]; multilamellar POPC vesicles, Table S1, hydration 20 % w/v, substrate/lipid 0.100 mole/mole): 89.4
- Kp at 0.01 mole/mole substrate/lipid ([1]; multilamellar POPC vesicles, Table S1, hydration 30 % w/v, substrate/lipid 0.010 mole/mole): 65.3
- Kp at 0.033 mole/mole substrate/lipid ([1]; multilamellar POPC vesicles, Table S1, hydration 30 % w/v, substrate/lipid 0.033 mole/mole): 49.2
- Kp at 0.1 mole/mole substrate/lipid ([1]; multilamellar POPC vesicles, Table S1, hydration 30 % w/v, substrate/lipid 0.100 mole/mole): 70.7
- Kp ([1]; multilamellar POPC vesicles, Table S1, mean over all hydrations (10-30 % w/v) and substrate/lipid ratios (0.010-0.100)): 71.6
Structure (SMILES): OCCC(F)(F)CCO [compound 10]

- Molar Partition Coefficient (logKP) [1, 4]: 1.68 ± 0.08
Structure (SMILES): OCCC(F)CCO [compound 11]

- logKp Measured as single compound (3.30 mol%) [1]: 2.40±0.07
- Molar Partition Coefficient (logKP) [1, 4]: 2.40 ± 0.07
- logKp Measured as equimolar mixture ([1]; mixture 10+13, 3.30 mol% each): 2.50±0.10
Structure (SMILES): OCC(F)(F)CC(F)(F)CO [compound 13]

- Molar Partition Coefficient (logKP) [1, 4]: 2.01 ± 0.01
Structure (SMILES): OCC(F)CC(F)(F)CO (stereo not drawn) [compound 14]

- Molar Partition Coefficient (logKP) [1, 4]: 1.85 ± 0.10
Structure (SMILES): OC[C@@H](F)C[C@H](F)CO [compound 15]

- Molar Partition Coefficient (logKP) [1, 4]: 1.71 ± 0.10
Structure (SMILES): OC[C@@H](F)C[C@@H](F)CO [compound 16]
